Results as given in publication PMC8583776, “PD-L1 Inhibitors: Different Classes, Activities, and Mechanisms of Action” (International Journal of Molecular Sciences, 2021).
Where two headings read alike, the source gives them in different places.

Columns and labels:
[1] = biological target: T1, hPD-1/hPD-L1 complex (Homo sapiens, UniProt Q9NZQ7); conditions: cited from earlier work
T1 construct: Tag1 or Tag2 (kit tag, identity not disclosed); purchased CisBio (Codolet, France)

[2] = biological target: T2, PD-1/PD-L1 immune checkpoint (Homo sapiens, UniProt Q9NZQ7); conditions: cited from earlier work; for EC50: read-out: ICB Assay EC50; for ICB Assay %RLUmax: % of activation by therapeutic anti-PD-L1 antibody
T2 construct: host or cells: CHO-K1 (CHO/TCRAct/PD-L1) cells and Jurkat Effector Cells

[3] = system: mPD-L1; set-up: method as in PMID 33437940; conditions: cited from earlier work; for Target Specificity mPD-L1: mouse PD-L1
[4] = system: PD-L1; set-up: method as in PMID 33619272; conditions: cited from earlier work
[5] = system: MC38-hPD-L1 tumor model; set-up: method as in PMID 33619272; conditions: humanized double knock-in mice for PD-1 and PD-L1; cited from earlier work
[6] = system: human PD-L1; conditions: cited from earlier work
[7] = system: PD-1; conditions: cited from earlier work
[8] = system: PD-1/PD-L1 complex; conditions: various assays; cited from earlier work
[9] = system: human PBMCs; set-up: method as in PMID 31374878; conditions: cited from earlier work
[10] = system: mouse T cells; set-up: method as in PMID 31374878; conditions: cited from earlier work
[11] = system: human PD-L1; set-up: method as in PMID 29069777, PMID 28613862, PMID 27083005, PMID 33619272; conditions: in vitro PD-L1 dimerization in the presence of the molecule; cited from earlier work
[12] = system: hPD-L1; set-up: method as in PMID 33437940; conditions: cited from earlier work
[13] = biological target: T1, hPD-1/hPD-L1 complex; assay: HTRF assay of PD-1/PD-L1 complex formation blockade; type: binding; conditions: Figure A2, 5 nM hPD-L1, 50 nM hPD-1
Source text: We performed a comparison of the in vitro targeting of the PD-1/PD-L1 immune checkpoint with molecules selected from various classes, including small molecules, macrocyclic peptides, and monoclonal antibodies. For this, two standardized and popular techniques used in the available literature were applied: the protein-based Homogeneous Time-Resolved Fluorescence (HTRF) method and the cell-based Immune Checkpoint Blockade (ICB) assay. Using these methods, three parameters describing the in vitro potency of the tested compounds were determined: (i) IC50 values of the blockade of PD-1/PD-L1 complex formation (from HTRF); (ii) EC50 values of the reactivation of the effector T cells blocked with PD-L1 (from ICB); and (iii) maximal activation levels of the effector T cells, calculated as the % of the activation in the presence of therapeutic anti-PD-L1 antibody atezolizumab or durvalumab. […]
The certified CisBio (Codolet, France) HTRF assay was used to determine the IC50 values of the compounds according to the manufacturer’s guidelines. […] IC50 of tested compounds was determined for two individual dilution series unless stated otherwise. After mixing, the plate was left for 2 h incubation at room temperature and later measured using Tecan Spark 20M multimode microplate reader (Tecan, Männedorf, Switzerland). […]

[14] = authors' laboratory, read-out: HTRF IC50 Ours
[15] = other laboratories, read-out: HTRF IC50 Other

T1 sequence (Q9NZQ7 19-238 limits assumed, one chain of several): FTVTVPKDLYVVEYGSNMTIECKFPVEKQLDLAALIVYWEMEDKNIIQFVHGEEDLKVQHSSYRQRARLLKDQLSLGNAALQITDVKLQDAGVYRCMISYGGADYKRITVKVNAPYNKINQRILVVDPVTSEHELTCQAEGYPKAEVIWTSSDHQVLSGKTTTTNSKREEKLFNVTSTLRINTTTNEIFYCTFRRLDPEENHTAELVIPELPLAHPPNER
T2 sequence (Q9NZQ7 19-290): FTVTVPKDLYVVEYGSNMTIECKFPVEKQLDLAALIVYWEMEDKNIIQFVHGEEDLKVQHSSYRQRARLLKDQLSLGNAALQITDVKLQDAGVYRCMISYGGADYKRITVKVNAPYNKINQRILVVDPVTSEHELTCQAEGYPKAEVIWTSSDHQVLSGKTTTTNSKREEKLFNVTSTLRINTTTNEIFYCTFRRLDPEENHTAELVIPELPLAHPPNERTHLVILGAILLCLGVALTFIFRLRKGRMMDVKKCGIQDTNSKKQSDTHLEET

Row | Compound | IC50 [1, 15] | EC50 [2] | ICB Assay %RLUmax [2] | Target Specificity mPD-L1 [3] | other results
1 | p101: macrocyclic peptide PD-L1 inhibitor disclosed by Bristol Myers Squibb (FFIVIRDRVFRCG) | 120 nM | 7500 nM | – | – | IC50 [1, 14]: 27.8 nM
2 | p71: macrocyclic peptide PD-L1 inhibitor disclosed by Bristol Myers Squibb | 7 nM | 293 nM | – | – | –
3 | O=C(O)[C@@H]1CCCCN1Cc1ccc(OCc2cccc(-c3ccccc3)c2Br)c(Br)c1 [2k] | – | 6630 nM | 87% | No | IC50 [1, 14]: 14.9 nM
4 | CC(=O)NCCNCc1cc(C)c(OCc2cccc(-c3cccc(COc4cc(OCc5cccc(C#N)c5)c(CNCCNC(C)=O)cc4C)c3C)c2C)cc1OCc1cccc(C#N)c1 [2b] | – | 763 nM | 93% | No | –
5 | Cc1c(NC(=O)c2ccc(CNCCO)cn2)cccc1-c1cccc(NC(=O)c2ccc(CNCCO)cn2)c1C [comp. A] | 0.4 nM | 18.9 nM | 86.3% | No | dimerization of PD-L1 in a cellular context [4]: dimerization of PD-L1; in vivo bioactivity [5]: succeeded in showing the bioactivity
6 | O=C(O)[C@H](CO)NCc1cc(Br)c(OCc2cccc(-c3ccccc3)c2Br)cc1OCc1ccc2nonc2c1 [L7] | – | 375 nM | 75% | – | –
7 | COc1cc(-c2cccc(-c3ccc4c(c3)OCCO4)c2Cl)ccc1CNC(CO)(CO)CO [8j] | – | 1030 nM | 87% | No | IC50 [1, 14]: < 1 nM
8 | C[C@@H](O)[C@H](NC(=O)N[C@@H](CC(N)=O)c1nc([C@@H](N)CO)no1)C(=O)O [CA-170] | – | – | – | – | activity in PD-1/PD-L1-focused cell-based ICB assay [2]: inactive; direct binding to human PD-L1 [6]: direct binder of neither human PD-L1 nor PD-1; direct binding to PD-1 [7]: direct binder of neither human PD-L1 nor PD-1; dissociation of the PD-1/PD-L1 complex [8]: unable to dissociate the PD-1/PD-L1 complex; activation of human PBMCs [9]: increase the activation of human PBMCs; activation of mouse T cells [10]: increase the activation of human PBMCs and mouse T cells
9 | O=C(O)[C@H](CO)NCc1ccc2c(Nc3cccc(-c4ccc5c(c4)OCCO5)c3Cl)nsc2c1 [CH20] | 8.5 nM | 5600 nM | 93% | – | –
10 | Cc1c(COc2cc(OCc3cccc(C#N)c3)c(CN3C[C@H](O)C[C@@H]3C(=O)O)cc2Cl)cccc1-c1ccc2c(c1)OCCO2 [BMS-1166] | – | – | – | No | –
11 | atezolizumab: therapeutic anti-PD-L1 antibody | – | 0.14 nM | 100% | – | PD-L1 Dimerization [11]: No; blockade of human PD-L1 [12]: blocks both human and mouse PD-L1; blockade of mouse PD-L1 [3]: blocks both human and mouse PD-L1
12 | durvalumab: therapeutic anti-PD-L1 antibody | – | 0.23 nM | 100% | No | IC50 ([13]; read-out: HTRF IC50): 0.0966 nM; IC50 [13, 14]: 0.1 nM; PD-L1 Dimerization [11]: No; blockade of human PD-L1 [12]: blocks the human PD-L1; blockade of mouse PD-L1 [3]: not the mouse PD-L1
13 | p57: macrocyclic peptide PD-L1 inhibitor disclosed by Bristol Myers Squibb | 9 nM | 566 nM | – | – | –
14 | COc1cc(-c2cccc(-c3cccc(-c4ccc(CN5CC(C(=O)O)C5)c(OC)c4)c3C)c2C)ccc1CN1CC(C(=O)O)C1 [C13] | 4.23 nM | 104 nM | 100% | – | –
15 | nivolumab: therapeutic antibody | 0.2 nM | 1.27 nM | 100% | – | –
16 | COc1nc(OCc2cccc(-c3ccccc3)c2C)ccc1CNCCNC(C)=O [BMS-202] | – | – | – | No | –
17 | CC(=O)NCCNCc1cc(C)c(OCc2cccc(-c3cccc4c3CCN4CCCN3CCC(O)CC3)c2C)cc1OCc1cccc(C#N)c1 [A20] | 17 nM | 430 nM | 55% | – | –
